From doi:10.1101/2021.09.30.462449v1 (biorxiv, 2021)

Assays:
Assay in all cases: biochemical
STK32C (YANK3) = STK32C (YANK3) (Homo sapiens, UniProt Q86UX6); conditions: read-out: % inhibition mean (Lanthascreen)
[1] = molecular target: MAP3K7/MAP3K7IP1 (TAK1-TAB1) (Homo sapiens, UniProt O43318); conditions: read-out: % inhibition mean (Lanthascreen)
ALK L1196M = ALK L1196M (Homo sapiens, UniProt Q9UM73, L1196M); conditions: read-out: % inhibition mean (Lanthascreen)
WEE1 = WEE1 (Homo sapiens, UniProt P30291); conditions: read-out: % inhibition mean (Lanthascreen)
ICK = ICK (Homo sapiens, UniProt Q9UPZ9); conditions: read-out: % inhibition mean (Lanthascreen)
MYO3A (MYO3 alpha) = MYO3A (MYO3 alpha) (Homo sapiens, UniProt Q8NEV4); conditions: read-out: % inhibition mean (Lanthascreen)
ULK1 = ULK1 (Homo sapiens, UniProt O75385); conditions: read-out: % inhibition mean (Lanthascreen)
KIT Y823D = KIT Y823D (Homo sapiens, UniProt P10721, Y823D); conditions: read-out: % inhibition mean (Lanthascreen)
CDK16 (PCTK1)/cyclin Y = CDK16 (PCTK1)/cyclin Y (Homo sapiens, UniProt Q00536); conditions: read-out: % inhibition mean (Lanthascreen)
CDC7/DBF4 = CDC7/DBF4 (Homo sapiens, UniProt O00311); conditions: read-out: % inhibition mean (Lanthascreen)
CDK9/cyclin K = CDK9/cyclin K (Homo sapiens, UniProt P50750); conditions: read-out: % inhibition mean (Lanthascreen)
ABL1 M351T = ABL1 M351T (Homo sapiens, UniProt P00519, M351T); conditions: read-out: % inhibition mean (Lanthascreen)
EPHA3 = EPHA3 (Homo sapiens, UniProt P29320); conditions: read-out: % inhibition mean (Lanthascreen)
CDK13/cyclin K = CDK13/cyclin K (Homo sapiens, UniProt Q14004); conditions: read-out: % inhibition mean (Lanthascreen)
MAP2K1 (MEK1) = MAP2K1 (MEK1) (Homo sapiens, UniProt Q02750); conditions: read-out: % inhibition mean (Lanthascreen)
GRK1 = GRK1 (Homo sapiens, UniProt Q15835); conditions: read-out: % inhibition mean (Lanthascreen)
[2] = molecular target: MAP2K1 (MEK1) S218D S222D (Homo sapiens, UniProt Q02750, S218D/S222D); conditions: read-out: % inhibition mean (Lanthascreen)
CDK2/cyclin O = CDK2/cyclin O (Homo sapiens, UniProt P24941); conditions: read-out: % inhibition mean (Lanthascreen)
AAK1 = AAK1 (Homo sapiens, UniProt Q2M2I8); conditions: read-out: % inhibition mean (Lanthascreen)
KIT A829P = KIT A829P (Homo sapiens, UniProt P10721, A829P); conditions: read-out: % inhibition mean (Lanthascreen)
CDK5 (Inactive) = CDK5 (Inactive) (Homo sapiens, UniProt Q00535); conditions: read-out: % inhibition mean (Lanthascreen)
AURKA (Aurora A) = AURKA (Aurora A) (Homo sapiens, UniProt O14965); conditions: read-out: % inhibition mean (Z'Lyte)
FER = FER (Homo sapiens, UniProt P16591); conditions: read-out: % inhibition mean (Z'Lyte)
KIT V560G = KIT V560G (Homo sapiens, UniProt P10721, V560G); conditions: read-out: % inhibition mean (Z'Lyte)
LYN B = LYN B (Homo sapiens, UniProt P07948); conditions: read-out: % inhibition mean (Z'Lyte)
EPHB3 = EPHB3 (Homo sapiens, UniProt P54753); conditions: read-out: % inhibition mean (Z'Lyte)
AMPK (A2/B1/G2) = AMPK (A2/B1/G2) (Homo sapiens, UniProt P54646); conditions: read-out: % inhibition mean (Z'Lyte)
KIT T670I = KIT T670I (Homo sapiens, UniProt P10721, T670I); conditions: read-out: % inhibition mean (Z'Lyte)

Chain of CDK9/cyclin K (P50750 whole entry): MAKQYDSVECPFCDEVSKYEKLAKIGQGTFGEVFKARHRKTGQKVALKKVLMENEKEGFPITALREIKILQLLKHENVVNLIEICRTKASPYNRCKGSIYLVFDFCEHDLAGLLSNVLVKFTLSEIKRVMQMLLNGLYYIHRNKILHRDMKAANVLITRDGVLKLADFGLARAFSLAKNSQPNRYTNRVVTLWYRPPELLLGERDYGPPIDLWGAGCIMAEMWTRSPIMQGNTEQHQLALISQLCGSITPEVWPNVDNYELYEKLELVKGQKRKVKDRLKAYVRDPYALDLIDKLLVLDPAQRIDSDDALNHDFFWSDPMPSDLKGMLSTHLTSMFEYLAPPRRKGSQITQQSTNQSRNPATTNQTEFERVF
Chain of CDK9/cyclin K (O75909 whole entry partner): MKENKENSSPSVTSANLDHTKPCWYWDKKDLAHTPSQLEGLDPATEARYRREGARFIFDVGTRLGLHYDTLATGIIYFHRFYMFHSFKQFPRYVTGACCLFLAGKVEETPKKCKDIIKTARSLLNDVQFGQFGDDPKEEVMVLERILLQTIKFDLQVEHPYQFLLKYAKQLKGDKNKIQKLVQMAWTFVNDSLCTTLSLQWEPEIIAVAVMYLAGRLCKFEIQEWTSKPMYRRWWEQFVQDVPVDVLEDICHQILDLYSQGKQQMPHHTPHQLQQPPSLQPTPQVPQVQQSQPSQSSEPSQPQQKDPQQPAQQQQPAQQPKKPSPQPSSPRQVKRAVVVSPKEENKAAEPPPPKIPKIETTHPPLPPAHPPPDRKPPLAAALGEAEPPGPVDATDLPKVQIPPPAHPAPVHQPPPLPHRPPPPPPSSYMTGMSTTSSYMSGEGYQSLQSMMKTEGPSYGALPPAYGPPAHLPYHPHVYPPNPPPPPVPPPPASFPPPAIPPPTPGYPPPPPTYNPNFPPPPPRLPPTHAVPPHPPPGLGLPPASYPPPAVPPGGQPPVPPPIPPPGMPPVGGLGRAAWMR
Chain of WEE1 (P30291 whole entry): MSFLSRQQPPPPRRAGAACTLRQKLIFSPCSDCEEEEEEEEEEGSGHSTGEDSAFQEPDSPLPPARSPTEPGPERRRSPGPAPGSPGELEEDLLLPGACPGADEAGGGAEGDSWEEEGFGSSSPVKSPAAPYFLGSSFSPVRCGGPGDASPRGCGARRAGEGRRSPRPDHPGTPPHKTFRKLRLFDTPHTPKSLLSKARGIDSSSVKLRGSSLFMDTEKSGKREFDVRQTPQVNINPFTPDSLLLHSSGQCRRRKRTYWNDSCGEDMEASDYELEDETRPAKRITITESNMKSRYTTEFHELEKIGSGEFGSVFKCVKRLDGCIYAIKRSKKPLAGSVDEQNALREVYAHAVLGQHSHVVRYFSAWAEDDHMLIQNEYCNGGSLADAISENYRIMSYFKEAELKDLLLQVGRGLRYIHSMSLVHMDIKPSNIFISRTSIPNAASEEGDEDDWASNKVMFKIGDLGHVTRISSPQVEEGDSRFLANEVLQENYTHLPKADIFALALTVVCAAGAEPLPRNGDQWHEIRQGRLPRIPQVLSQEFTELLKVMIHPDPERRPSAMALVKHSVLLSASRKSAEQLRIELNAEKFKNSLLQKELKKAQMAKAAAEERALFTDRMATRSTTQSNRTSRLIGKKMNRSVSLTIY
Chain of CDC7/DBF4 (O00311 whole entry): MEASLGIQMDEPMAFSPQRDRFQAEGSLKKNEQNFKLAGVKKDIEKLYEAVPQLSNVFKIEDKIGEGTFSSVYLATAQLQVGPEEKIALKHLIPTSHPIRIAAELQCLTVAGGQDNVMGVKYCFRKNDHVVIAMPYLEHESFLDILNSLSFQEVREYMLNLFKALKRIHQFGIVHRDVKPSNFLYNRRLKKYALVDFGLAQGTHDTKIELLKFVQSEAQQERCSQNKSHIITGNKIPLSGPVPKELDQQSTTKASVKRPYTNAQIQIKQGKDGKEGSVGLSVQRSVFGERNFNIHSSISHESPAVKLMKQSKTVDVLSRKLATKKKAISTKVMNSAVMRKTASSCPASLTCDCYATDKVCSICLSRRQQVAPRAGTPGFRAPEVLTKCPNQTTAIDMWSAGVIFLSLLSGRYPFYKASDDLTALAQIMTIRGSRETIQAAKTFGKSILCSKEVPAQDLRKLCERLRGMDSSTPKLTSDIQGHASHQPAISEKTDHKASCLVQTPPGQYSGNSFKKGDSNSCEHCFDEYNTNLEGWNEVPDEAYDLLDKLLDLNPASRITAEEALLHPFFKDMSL
Chain of CDC7/DBF4 (Q9UBU7 whole entry partner): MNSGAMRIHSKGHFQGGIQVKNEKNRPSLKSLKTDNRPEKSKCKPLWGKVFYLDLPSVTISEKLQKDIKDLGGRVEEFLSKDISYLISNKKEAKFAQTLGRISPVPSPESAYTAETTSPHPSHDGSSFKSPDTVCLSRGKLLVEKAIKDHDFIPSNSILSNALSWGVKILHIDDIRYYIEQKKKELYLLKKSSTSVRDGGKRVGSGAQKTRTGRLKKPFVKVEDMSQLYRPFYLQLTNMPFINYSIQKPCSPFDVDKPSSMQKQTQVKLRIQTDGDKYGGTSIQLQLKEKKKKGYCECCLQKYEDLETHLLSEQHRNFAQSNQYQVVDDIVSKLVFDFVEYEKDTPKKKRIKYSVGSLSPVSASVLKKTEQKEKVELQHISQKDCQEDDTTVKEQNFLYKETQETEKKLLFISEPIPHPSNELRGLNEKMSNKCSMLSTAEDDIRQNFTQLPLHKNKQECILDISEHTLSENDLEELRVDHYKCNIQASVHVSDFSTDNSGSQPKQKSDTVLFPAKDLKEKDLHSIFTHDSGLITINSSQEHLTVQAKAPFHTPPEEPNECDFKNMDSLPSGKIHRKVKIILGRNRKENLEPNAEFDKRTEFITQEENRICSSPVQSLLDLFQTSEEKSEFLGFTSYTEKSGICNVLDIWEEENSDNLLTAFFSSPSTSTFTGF
Chain of KIT A829P (P10721 whole entry A829P): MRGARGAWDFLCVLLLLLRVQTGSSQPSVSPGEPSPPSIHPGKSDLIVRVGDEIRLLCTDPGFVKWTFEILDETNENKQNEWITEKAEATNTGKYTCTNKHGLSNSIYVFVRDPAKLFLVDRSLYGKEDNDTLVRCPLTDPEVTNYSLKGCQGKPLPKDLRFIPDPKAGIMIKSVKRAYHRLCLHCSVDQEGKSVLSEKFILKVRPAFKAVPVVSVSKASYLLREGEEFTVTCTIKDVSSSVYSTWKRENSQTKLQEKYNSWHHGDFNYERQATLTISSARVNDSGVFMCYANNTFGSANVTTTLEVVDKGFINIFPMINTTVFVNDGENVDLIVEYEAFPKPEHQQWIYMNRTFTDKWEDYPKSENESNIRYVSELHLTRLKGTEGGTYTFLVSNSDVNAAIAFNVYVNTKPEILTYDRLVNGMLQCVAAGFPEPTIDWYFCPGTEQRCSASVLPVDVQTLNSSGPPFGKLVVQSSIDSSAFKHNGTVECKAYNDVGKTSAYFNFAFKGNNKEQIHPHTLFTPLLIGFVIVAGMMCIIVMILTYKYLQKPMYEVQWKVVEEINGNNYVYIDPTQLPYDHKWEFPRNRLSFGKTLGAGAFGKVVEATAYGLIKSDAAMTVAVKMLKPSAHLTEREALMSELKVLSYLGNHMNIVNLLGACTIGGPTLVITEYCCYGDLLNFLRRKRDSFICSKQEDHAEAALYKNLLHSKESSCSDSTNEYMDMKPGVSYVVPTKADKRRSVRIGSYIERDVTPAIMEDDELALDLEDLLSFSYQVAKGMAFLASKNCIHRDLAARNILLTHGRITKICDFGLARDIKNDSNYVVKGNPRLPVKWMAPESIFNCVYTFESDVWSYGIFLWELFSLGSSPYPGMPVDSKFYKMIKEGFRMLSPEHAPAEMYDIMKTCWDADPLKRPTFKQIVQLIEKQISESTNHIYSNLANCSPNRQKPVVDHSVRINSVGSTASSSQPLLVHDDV
Chain of GRK1 (Q15835 whole entry): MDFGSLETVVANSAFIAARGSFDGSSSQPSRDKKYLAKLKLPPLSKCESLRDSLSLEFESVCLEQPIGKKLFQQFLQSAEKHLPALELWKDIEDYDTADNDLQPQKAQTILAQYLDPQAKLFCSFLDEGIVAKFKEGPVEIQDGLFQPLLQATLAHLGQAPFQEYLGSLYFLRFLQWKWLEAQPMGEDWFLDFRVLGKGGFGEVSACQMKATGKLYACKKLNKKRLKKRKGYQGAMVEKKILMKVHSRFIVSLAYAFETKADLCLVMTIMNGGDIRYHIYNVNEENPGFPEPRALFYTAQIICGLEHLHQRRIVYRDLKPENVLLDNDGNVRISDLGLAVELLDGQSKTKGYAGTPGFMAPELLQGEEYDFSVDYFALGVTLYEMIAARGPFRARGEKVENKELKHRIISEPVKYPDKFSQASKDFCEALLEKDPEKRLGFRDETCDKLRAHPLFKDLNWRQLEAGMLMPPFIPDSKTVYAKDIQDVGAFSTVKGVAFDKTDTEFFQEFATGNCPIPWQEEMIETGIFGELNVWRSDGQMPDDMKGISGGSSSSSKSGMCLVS
Chain of ICK (Q9UPZ9 whole entry): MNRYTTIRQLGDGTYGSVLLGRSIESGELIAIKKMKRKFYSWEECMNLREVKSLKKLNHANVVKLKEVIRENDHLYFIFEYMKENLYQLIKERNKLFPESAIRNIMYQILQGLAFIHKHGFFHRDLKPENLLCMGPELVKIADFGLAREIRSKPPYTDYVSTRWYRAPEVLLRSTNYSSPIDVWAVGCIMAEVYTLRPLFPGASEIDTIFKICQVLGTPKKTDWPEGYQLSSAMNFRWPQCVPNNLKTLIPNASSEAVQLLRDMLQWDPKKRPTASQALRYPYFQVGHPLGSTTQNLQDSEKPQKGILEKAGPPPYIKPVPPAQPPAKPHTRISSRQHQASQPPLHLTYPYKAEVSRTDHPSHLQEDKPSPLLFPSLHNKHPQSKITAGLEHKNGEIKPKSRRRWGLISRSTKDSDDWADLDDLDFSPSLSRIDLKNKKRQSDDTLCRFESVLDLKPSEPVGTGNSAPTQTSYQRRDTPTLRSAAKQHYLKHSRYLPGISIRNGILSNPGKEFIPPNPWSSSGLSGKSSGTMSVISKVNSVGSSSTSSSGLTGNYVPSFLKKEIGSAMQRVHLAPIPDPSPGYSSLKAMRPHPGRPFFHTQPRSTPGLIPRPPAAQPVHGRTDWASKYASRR

## COc1ccc2nc3cc(Cl)ccc3c(Nc3cc(CN4CCCC4)c(O)c(CN4CCCC4)c3)c2n1 [Pyronaridine, 4-[(7-Chloro-2-methoxybenzo[b][1,5]naphthyridin-10-yl)amino]-2,6-bis(1-pyrrolidinylmethyl)phenol phosphate (1:4)]
STK32C (YANK3)
  inhibition at 1 µM: 1%
[1]
  inhibition at 1 µM: 1%
ALK L1196M
  inhibition at 1 µM: -3%
WEE1
  inhibition at 1 µM: 10%
ICK
  inhibition at 1 µM: 0%
MYO3A (MYO3 alpha)
  inhibition at 1 µM: -6%
ULK1
  inhibition at 1 µM: -4%
KIT Y823D
  inhibition at 1 µM: -4%
CDK16 (PCTK1)/cyclin Y
  inhibition at 1 µM: -12%
CDC7/DBF4
  inhibition at 1 µM: -6%
CDK9/cyclin K
  inhibition at 1 µM: 5%
ABL1 M351T
  inhibition at 1 µM: 8%
EPHA3
  inhibition at 1 µM: 11%
CDK13/cyclin K
  inhibition at 1 µM: -13%
MAP2K1 (MEK1)
  inhibition at 1 µM: 1%
GRK1
  inhibition at 1 µM: 1%
[2]
  inhibition at 1 µM: 3%
CDK2/cyclin O
  inhibition at 1 µM: 2%
AAK1
  inhibition at 1 µM: 0%
KIT A829P
  inhibition at 1 µM: -9%
CDK5 (Inactive)
  inhibition at 1 µM: -1%
AURKA (Aurora A)
  inhibition at 1 µM: 9%
FER
  inhibition at 1 µM: -21%
KIT V560G
  inhibition at 1 µM: -5%
LYN B
  inhibition at 1 µM: -2%
EPHB3
  inhibition at 1 µM: -1%
AMPK (A2/B1/G2)
  inhibition at 1 µM: 1%
KIT T670I
  inhibition at 1 µM: 1%
